Consider 23 compounds from patent publication US7326698B2, “Prostaglandin analogs” (Allergan, Inc., priority 2004, dated 2008).

The target of one experiment is T1, hEP4/Gqs5 (Homo sapiens, UniProt P35408).
T1 construct: expressed in transfected cells; host or cells: HEK-293(EBNA)
In words: FLIPR calcium signal, HEK-293(EBNA) cells. It is filed as cell-based. Particulars: read-out: Functional Data (EC50 in nM) hEP4. As to the method: (§1) Methods for FLIPR™ Studies
(§2) HEK-293(EBNA) cells, stably expressing one type or subtype of recombinant human prostaglandin receptors (prostaglandin receptors expressed: hDP/Gqs5; hEP1; hEP2/Gqs5; hEP3A/Gqi5; hEP4/Gqs5; hFP; hIP; hTP), are cultured in 100 mm culture dishes in high-glucose DMEM medium containing 10% fetal bovine serum, 2 mM 1-glutamine, 250 μg/ml geneticin (G418) and 200 μg/ml hygromycin B as selection markers, and 100 units/ml penicillin G, 100 μg/ml streptomycin and 0.25 μg/ml amphotericin B.
(§3) (b) Calcium Signal Studies On the FLIPR™
(§4) Cells are seeded at a density of 5×10^4 cells per well in Biocoat® Poly-D-lysine-coated black-wall, clear-bottom 96-well plates (Becton-Dickinson) and allowed to attach overnight in an incubator at 37° C. Cells are then washed two times with HBSS-HEPES buffer (Hanks Balanced Salt Solution without bicarbonate and phenol red, 20 mM HEPES, pH 7.4) using a Denley Cellwash plate washer (Labsystems). After 45 minutes of dye-loading in the dark, using the calcium-sensitive dye Fluo-4 AM at a final concentration of 2 μM, plates are washed four times with HBSS-HEPES buffer to remove excess dye leaving 100 μl in each well. Plates are re-equilibrated to 37° C. for a few minutes.
(§5) Cells are excited with an Argon laser at 488 nm, and emission is measured through a 510-570 nm bandwidth emission filter (FLIPR™, Molecular Devices, Sunnyvale, Calif.). Drug solution is added in a 50 μl volume to each well to give the desired final concentration. The peak increase in fluorescence intensity is recorded for each well. On each plate, four wells each serve as negative (HBSS-HEPES buffer) and positive controls (standard agonists: BW245C (hDP); PGE2 (hEP1; hEP2/Gqs5; hEP3A/Gqi5; hEP4/Gqs5); PGF2α, (hFP); carbacyclin (hIP); U-46619 (hTP), depending on receptor). The peak fluorescence change in each drug-containing well is then expressed relative to the controls.
(§6) Compounds are tested in a high-throughput (HTS) or concentration-response (CoRe) format. In the HTS format, forty-four compounds per plate are examined in duplicates at a concentration of 10^−5 M. To generate concentration-response curves, four compounds per plate are tested in duplicates in a concentration range between 10^−5 and 10^−11 M. The duplicate values are averaged. In either, HTS or CoRe format each compound is tested on at least 3 separate plates using cells from different passages to give an n≧3.

In a further experiment the target is T2, hTP (Homo sapiens, UniProt P21731).
T2 construct: expressed in transfected cells; host or cells: HEK-293(EBNA)
T2 sequence (P21731 1-343): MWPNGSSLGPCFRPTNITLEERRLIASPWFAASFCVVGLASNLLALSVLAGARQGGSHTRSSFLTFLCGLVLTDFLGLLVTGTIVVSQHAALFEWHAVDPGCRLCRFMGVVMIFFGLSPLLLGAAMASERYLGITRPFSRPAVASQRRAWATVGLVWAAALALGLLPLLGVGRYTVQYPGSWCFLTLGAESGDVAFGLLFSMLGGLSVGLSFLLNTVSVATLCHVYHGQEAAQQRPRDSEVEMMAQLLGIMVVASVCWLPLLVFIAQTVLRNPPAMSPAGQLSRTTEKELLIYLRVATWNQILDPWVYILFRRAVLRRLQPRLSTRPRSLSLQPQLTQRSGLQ
In words: FLIPR calcium signal, HEK-293(EBNA) cells. It is filed as cell-based. Particulars: read-out: Functional Data (EC50 in nM) hTP. As to the method: as §1, §2, §3, §4, §5, §6

For a further experiment, the target named is T3, hEP3A/Gqi5 (Homo sapiens, UniProt P43115).
T3 construct: expressed in transfected cells; host or cells: HEK-293(EBNA)
T3 sequence (P43115 1-390): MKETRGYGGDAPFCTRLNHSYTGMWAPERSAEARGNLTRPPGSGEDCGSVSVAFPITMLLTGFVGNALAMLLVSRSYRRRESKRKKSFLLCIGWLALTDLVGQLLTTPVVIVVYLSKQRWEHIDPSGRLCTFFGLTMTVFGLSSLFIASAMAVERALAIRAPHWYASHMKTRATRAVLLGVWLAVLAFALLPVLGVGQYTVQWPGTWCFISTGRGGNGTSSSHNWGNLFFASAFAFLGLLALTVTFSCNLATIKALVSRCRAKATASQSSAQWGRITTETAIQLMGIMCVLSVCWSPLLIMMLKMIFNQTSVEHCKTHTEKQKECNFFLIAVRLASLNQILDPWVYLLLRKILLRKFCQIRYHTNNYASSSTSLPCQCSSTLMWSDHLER
Description: FLIPR calcium signal, HEK-293(EBNA) cells. It is filed as cell-based. To be noted: read-out: Functional Data (EC50 in nM) hEP3A. Here is the method: as §1, §2, §3, §4, §5, §6

Another experiment concerns the target T4, hIP (Homo sapiens, UniProt P43119).
T4 construct: expressed in transfected cells; host or cells: HEK-293(EBNA)
In words: FLIPR calcium signal, HEK-293(EBNA) cells. It is filed as cell-based. Particulars: read-out: Functional Data (EC50 in nM) hIP. Here is the method:
as §1, §2, §3, §4, §5, §6

The next experiment has as its target T5, hEP4 (Homo sapiens, UniProt P35408).
T5 construct: expressed in transfected cells; host or cells: HEK-293 (membrane fraction)
Description: Radioligand binding, HEK-293 cells stably expressing EP4 receptor. To be noted: competition vs 5 nM [3H]-PGE2. As to the method: Cells Stably Expressing EP1, EP2, EP4 and FP Receptors
HEK-293 cells stably expressing the human or feline FP receptor, or EP1, EP2, or EP4 receptors are washed with TME buffer, scraped from the bottom of the flasks, and homogenized for 30 sec using a Brinkman PT 10/35 polytron. TME buffer is added to achieve a final 40 ml volume in the centrifuge tubes (the composition of TME is 100 mM TRIS base, 20 mM MgCl2, […]; 10N HCl is added to achieve a pH of 7.4).
The cell homogenate is centrifuged at 19000 r.p.m. for 20 min at 4° C. using a Beckman Ti-60 rotor. The resultant pellet is resuspended in TME buffer to give a final 1 mg/ml protein concentration, as determined by Biorad assay. Radioligand binding competition assays vs. [^3H-]17-phenyl PGF2[…](5 nM) are performed in a 100 μl volume for 60 min. Binding reactions are started by adding plasma membrane fraction. The reaction is terminated by the addition of 4 ml ice-cold TRIS-HCl buffer and rapid filtration through glass fiber GF/B filters using a Brandel cell harvester. The filters are washed 3 times with ice-cold buffer and oven dried for one hour.
[^3H-] PGE2 (specific activity 180 Ci mmol) is used as the radioligand for EP receptors. [^3H] 17-phenyl PGF2[…]is employed for FP receptor binding studies. […] 17-phenyl PGF2[…]and non-specific binding determined with 10^−5M of unlabeled PGE2, or 17-phenyl PGF2[…], according to receptor subtype studied.

T1 sequence (P35408 whole entry): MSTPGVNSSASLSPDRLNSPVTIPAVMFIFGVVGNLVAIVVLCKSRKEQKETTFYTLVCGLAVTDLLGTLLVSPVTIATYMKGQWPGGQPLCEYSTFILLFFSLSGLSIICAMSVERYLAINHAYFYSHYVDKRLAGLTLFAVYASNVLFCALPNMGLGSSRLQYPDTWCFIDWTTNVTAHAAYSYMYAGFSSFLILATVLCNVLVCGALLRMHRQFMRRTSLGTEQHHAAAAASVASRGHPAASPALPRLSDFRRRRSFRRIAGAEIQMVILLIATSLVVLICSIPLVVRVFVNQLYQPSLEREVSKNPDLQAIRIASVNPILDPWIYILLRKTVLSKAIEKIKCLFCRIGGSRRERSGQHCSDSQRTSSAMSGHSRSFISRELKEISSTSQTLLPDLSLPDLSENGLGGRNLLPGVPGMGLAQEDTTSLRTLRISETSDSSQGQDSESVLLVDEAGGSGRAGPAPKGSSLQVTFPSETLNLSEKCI
T5 sequence (P35408 whole entry): as above
T4 sequence (P43119 whole entry): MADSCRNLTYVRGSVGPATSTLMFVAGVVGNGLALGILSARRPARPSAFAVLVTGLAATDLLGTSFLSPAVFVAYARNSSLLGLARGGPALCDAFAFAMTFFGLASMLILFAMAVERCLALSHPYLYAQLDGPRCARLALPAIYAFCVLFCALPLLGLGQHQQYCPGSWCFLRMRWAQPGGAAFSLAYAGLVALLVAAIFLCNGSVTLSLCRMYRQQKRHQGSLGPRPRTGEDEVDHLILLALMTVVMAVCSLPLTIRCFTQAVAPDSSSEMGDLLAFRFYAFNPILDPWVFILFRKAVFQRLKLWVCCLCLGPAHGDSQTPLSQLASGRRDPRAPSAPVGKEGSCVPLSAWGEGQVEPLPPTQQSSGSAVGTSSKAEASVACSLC

For `COC(=O)CCCC#CCN1C(=O)CCCCC1C=CC(=O)Cc1ccccc1` (centres unmarked), at hEP4/Gqs5, the EC50 – broadly, the concentration needed to bring the measured effect to its halfway point – is above 10000 nM.
Consider `O=C(O)CCCC#CCN1C(=O)CCCCC1C=CC(=O)Cc1ccccc1` (centres unmarked), for which the concentration giving a half-maximal response (EC50) on hEP4/Gqs5 was above 10000 nM.
Consider `COC(=O)CCCC#CCN1C(=O)CCCCC1C=CC(O)Cc1ccccc1` (centres unmarked), for which the EC50 on hEP4/Gqs5 stood at 3080 nM.
As to `O=C(O)CCCC#CCN1C(=O)CCCCC1C=CC(O)Cc1ccccc1` (centres unmarked), the EC50 stood at 1230 nM at hEP4/Gqs5 and 278 nM on hTP.
For `COC(=O)CCCCCCN1C(=O)CCCCC1CCC(=O)Cc1ccccc1` (centres unmarked), the EC50 at hEP4/Gqs5 was above 10000 nM.
As to `O=C(O)CCCCCCN1C(=O)CCCCC1CCC(=O)Cc1ccccc1` (centres unmarked), the EC50 on hEP4/Gqs5 was above 10000 nM.
For the compound `COC(=O)CCCCCCN1C(=O)CCCCC1CCC(O)Cc1ccccc1` (centres unmarked), the values for the EC50 on hEP3A/Gqi5 and at hEP4/Gqs5 were above 10000 nM and 3280 nM, respectively.
`O=C(O)CCCCCCN1C(=O)CCCCC1CCC(O)Cc1ccccc1` (centres unmarked): the EC50 at hEP4/Gqs5 is 451 nM; at hIP, 1640 nM; at hTP it was 549 nM.
Take `COC(=O)CCCC#CCN1C(=O)CCCCC1CCC(=O)Cc1ccccc1` (centres unmarked): the EC50 on hEP4/Gqs5 is above 10000 nM.
As for `O=C(O)CCCC#CCN1C(=O)CCCCC1CCC(=O)Cc1ccccc1` (centres unmarked), the results for the EC50 at hEP4/Gqs5 and at hTP were 2390 nM and 41 nM, respectively.
`COC(=O)CCCC#CCN1C(=O)CCCCC1CCC(O)Cc1ccccc1` (centres unmarked): at hEP4/Gqs5, the EC50 was above 10000 nM.
`O=C(O)CCCC#CCN1C(=O)CCCCC1CCC(O)Cc1ccccc1` (centres unmarked): the values for the EC50 on hEP4/Gqs5 and at hTP were 2000 nM and 112 nM, respectively.
For the compound `O=C(O)CCCCCCN1C(=O)CCCCC1C=CC(=O)Cc1ccccc1` (centres unmarked), the EC50 on hEP4/Gqs5 is above 10000 nM.
Consider `COC(=O)CCCCCCN1C(=O)CCCCC1C=CC(=O)Cc1ccccc1` (centres unmarked), for which the EC50 at hEP4/Gqs5 is above 10000 nM.
Regarding `O=C(O)CCCCCCN1C(=O)CCCCC1C=CC(O)Cc1ccccc1` (centres unmarked), the EC50 on hEP4/Gqs5 was above 10000 nM.
For `COC(=O)CCC/C=C\CN1C(=O)CCCCC1C=CC(O)Cc1ccccc1` (centres unmarked), at hEP4/Gqs5, the EC50 is above 10000 nM.
Consider `O=C(O)CCC/C=C\CN1C(=O)CCCCC1C=CC(O)Cc1ccccc1` (centres unmarked), for which the EC50 on hEP4/Gqs5 came to 266 nM; on hTP, 221 nM.
Take `COC(=O)CCC/C=C\CN1C(=O)CCCCC1CCC(=O)Cc1ccccc1` (centres unmarked): the EC50 at hEP4/Gqs5 came to 13300 nM. Besides, the IC50 (commonly the concentration that gives 50% inhibition) on hEP4 is above 10000 nM.
Consider `O=C(O)CCC/C=C\CN1C(=O)CCCCC1CCC(=O)Cc1ccccc1` (centres unmarked), for which the EC50 on hEP4/Gqs5 was above 10000 nM.
For the compound `COC(=O)CCC/C=C\CN1C(=O)CCCCC1CCC(O)Cc1ccccc1` (centres unmarked), the EC50 at hEP4/Gqs5 came to 2140 nM.
As for `O=C(O)CCC/C=C\CN1C(=O)CCCCC1CCC(O)Cc1ccccc1` (centres unmarked), on hEP4/Gqs5, the EC50 was found to be 116 nM. The IC50 at hEP4 is above 10000 nM.
Turning to `COC(=O)CCCCCCN1C(=O)CCCCC1C=CC(O)Cc1ccccc1` (centres unmarked) [drawing 36], the 50% effective concentration (EC50) at hEP4/Gqs5 was above 10000 nM.
Same read-out and setting: the same measure for `COC(=O)CCCCCCN1C(=O)CCCCC1C=CC(O)Cc1ccccc1` (centres unmarked) [drawing 40]: above 10000 nM.
